From patent US8673909B2, “Indole compounds and methods for treating visceral pain” (NeurAxon, Inc., priority 2007, dated 2014)
Structures can show the parent of a compound that is named as a salt. Where two headings read alike, the source gives them in different places. Values belong to the molecule of their own block, whether it stands above or below them.

How the values were obtained:
[1] = target: T1, Nitric oxide synthase (neuronal, human recombinant) nNOS (Homo sapiens, UniProt P29475); assay: nNOS (human) enzyme assay, [3H]-L-arginine to L-citrulline; assay type: biochemical
T1 construct: purchased Axxora LLC ALX-201-068
T1 sequence (P29475 whole entry): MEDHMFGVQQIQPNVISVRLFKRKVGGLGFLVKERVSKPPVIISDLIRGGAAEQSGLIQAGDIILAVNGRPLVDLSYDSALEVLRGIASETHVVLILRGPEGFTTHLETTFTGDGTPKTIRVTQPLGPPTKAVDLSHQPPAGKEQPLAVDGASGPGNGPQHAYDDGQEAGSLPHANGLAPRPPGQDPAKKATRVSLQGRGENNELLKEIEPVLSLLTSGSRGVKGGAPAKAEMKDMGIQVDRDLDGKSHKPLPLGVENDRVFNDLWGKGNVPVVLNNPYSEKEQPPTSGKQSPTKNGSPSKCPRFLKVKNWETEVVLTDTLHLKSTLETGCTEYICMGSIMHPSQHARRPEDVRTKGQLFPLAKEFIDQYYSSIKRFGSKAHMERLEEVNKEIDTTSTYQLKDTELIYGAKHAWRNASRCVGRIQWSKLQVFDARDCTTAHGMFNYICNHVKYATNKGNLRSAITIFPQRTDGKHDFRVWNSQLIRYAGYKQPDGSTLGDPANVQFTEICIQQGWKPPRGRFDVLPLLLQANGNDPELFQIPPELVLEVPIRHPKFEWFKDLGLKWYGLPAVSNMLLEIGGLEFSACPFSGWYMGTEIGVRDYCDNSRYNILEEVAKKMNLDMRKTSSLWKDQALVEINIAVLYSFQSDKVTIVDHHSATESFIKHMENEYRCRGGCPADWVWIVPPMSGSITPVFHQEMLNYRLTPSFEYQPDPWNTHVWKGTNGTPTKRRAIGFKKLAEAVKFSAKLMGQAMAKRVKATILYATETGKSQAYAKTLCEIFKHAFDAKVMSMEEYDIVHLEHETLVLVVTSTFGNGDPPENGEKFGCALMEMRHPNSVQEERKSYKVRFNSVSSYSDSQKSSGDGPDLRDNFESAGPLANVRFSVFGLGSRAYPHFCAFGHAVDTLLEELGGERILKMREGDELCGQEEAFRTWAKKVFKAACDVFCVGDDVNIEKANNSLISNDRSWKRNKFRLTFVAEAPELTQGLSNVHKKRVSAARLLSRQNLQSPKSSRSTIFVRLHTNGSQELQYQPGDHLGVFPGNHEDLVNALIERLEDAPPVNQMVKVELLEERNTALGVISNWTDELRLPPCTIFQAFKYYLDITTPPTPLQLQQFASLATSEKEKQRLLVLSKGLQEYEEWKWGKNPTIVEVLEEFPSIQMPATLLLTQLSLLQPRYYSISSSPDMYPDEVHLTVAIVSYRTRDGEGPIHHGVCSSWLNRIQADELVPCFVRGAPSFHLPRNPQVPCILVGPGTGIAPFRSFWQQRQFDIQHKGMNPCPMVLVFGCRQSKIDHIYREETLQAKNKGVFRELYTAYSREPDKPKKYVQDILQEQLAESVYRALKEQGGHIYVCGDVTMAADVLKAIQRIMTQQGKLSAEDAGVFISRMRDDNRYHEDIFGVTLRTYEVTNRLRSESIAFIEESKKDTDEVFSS

[2] = target: T2, Nitric oxide synthase (endothelial, human recombinant) eNOS (Homo sapiens, UniProt P29474); assay: eNOS (human) enzyme assay, [3H]-L-arginine to L-citrulline; assay type: biochemical
T2 construct: purchased Axxora LLC ALX-201-070
T2 sequence (P29474 whole entry): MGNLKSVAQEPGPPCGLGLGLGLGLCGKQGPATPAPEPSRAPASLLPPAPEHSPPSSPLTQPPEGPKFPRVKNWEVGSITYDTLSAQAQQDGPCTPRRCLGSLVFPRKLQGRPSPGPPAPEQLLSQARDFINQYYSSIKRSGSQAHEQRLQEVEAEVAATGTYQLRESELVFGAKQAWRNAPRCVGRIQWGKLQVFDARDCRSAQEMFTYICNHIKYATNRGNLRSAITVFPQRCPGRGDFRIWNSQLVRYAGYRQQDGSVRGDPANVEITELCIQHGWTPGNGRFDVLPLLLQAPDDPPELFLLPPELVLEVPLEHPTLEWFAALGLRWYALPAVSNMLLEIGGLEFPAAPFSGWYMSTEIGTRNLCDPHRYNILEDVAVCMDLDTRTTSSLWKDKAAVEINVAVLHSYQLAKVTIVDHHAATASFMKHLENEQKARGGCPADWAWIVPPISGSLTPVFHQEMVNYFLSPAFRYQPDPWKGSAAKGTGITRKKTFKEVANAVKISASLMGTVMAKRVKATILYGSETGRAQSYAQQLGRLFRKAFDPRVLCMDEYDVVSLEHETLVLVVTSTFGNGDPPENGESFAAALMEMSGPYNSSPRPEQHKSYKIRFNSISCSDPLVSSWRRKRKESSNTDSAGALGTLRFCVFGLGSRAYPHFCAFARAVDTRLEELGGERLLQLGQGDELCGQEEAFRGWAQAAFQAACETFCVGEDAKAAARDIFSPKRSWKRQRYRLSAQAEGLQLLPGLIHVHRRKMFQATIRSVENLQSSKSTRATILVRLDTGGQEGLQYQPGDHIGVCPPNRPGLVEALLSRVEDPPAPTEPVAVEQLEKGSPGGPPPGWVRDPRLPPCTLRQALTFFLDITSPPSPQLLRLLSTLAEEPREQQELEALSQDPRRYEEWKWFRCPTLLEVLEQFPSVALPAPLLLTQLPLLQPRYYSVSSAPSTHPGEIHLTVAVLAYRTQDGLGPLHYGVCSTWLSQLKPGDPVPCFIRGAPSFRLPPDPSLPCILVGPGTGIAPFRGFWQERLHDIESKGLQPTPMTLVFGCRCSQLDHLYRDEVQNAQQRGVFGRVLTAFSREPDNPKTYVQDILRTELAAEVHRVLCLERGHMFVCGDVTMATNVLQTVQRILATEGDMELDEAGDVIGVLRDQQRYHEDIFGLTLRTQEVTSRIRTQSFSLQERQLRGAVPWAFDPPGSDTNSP

[3] = target: Recombinant human inducible NOS (iNOS) (Homo sapiens, UniProt P35228); assay: Human iNOS assay, radiometric; assay type: biochemical; details: Table 10, human iNOS; read-out: iNOSh
Procedure: Recombinant human inducible NOS (iNOS) was produced in Baculovirus-infected Sf9 cells (ALEXIS). […] 15 μL of test substances are added to the mixture with the specific enzyme and pre-incubated at RT for 15 min. • 2. […] The incubation is carried out at 37° C. for 45 min. • 4. […] An aliquot 70 μL of the supernatant is added to 100 μL scintillation fluid. • 8.
The total volume of the reaction mixture is 150 μL in every well. All assays are performed at least in duplicate. Standard deviations are 10% or less.

[4] = target: 5-HT1D (Bos taurus, UniProt F1MMU1); assay: 5-HT1D binding assay (agonist radioligand), bovine caudate membranes
Chain of 5-HT1D (F1MMU1 1-377): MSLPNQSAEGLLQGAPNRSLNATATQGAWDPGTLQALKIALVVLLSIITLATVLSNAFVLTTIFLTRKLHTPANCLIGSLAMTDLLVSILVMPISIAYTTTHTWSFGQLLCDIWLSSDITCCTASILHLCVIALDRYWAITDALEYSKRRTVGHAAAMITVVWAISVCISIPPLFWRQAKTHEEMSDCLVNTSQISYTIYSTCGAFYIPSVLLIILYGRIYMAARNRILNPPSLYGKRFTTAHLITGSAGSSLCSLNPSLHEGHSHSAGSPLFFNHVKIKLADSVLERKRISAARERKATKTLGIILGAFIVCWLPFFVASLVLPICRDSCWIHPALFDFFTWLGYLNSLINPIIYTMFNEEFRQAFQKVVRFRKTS
Procedure: (§1) 5-HT1D binding assays (agonist radioligand) were performed using bovine caudate membranes according to the methods of Heuring and Peroutka (J. Neurosci., 7: 894-903 (1987)). 5-HT1B (rat cerebral cortex) binding assays (agonist radioligand) were performed according to the method of Hoyer et. al. (Eur. J. Pharmacol., 118: 1-12 (1995)). For the purpose of result analysis, the specific ligand binding to the receptors is defined as the difference between the total binding and the nonspecific binding as determined in the presence of an excess of unlabelled ligand. The results are expressed as a percent of control specific binding obtained in the presence of the test compounds.

[5] = target: T3, 5-HT1B (Rattus norvegicus, UniProt P28564); assay: 5-HT1B binding assay (agonist radioligand), rat cerebral cortex
T3 construct: from tissue; host or cells: rat cerebral cortex
T3 sequence (P28564 whole entry): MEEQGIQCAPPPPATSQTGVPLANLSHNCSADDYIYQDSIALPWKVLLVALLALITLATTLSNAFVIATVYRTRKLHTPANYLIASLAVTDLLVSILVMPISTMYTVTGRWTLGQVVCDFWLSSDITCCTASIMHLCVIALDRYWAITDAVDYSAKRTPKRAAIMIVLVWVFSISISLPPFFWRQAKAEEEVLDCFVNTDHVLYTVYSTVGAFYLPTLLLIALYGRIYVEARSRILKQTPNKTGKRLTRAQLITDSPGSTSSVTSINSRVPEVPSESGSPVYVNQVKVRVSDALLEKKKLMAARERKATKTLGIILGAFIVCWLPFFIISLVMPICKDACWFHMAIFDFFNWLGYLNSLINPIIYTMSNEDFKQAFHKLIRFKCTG
Procedure: as §1, with “compounds. IC50 values (concentration causing a half-maximal inhibition of control specific binding) and Hill coefficients (nH) were determined by non-linear regression analysis of the competition curves using Hill equation curve fitting and the inhibition constants (Ki) were calculated from the Cheng Prusoff equation (Ki=IC50/(1+(L/KD)), where L=concentration of radioligand in the assay, and KD=affinity of the radioligand for the receptor).” for “compounds.”

[6] = tested on: rats with experimental pancreatitis; assay: Pancreatitis visceral pain model (DBTC), referred abdominal hypersensitivity, von Frey; assay type: in vivo, rat
Procedure: Adult male Sprague Dawley rats (Harlan, Indianapolis, Ind.), weighing 150-200 g were maintained in a climate-controlled room with ad lib food and water on a 12-h light/dark cycle (lights on at 07:00 hours). All procedures followed the policies of the International Association for the Study of Pain and the NIH guidelines for the handling and use of laboratory animals. Studies were approved by the University of Arizona IACUC.
Pancreatitis was produced by a tail vein injection of dibutyltin dichloride (DBTC, Aldrich, Milwaukee, Wis., 0.25 cc) dissolved in 100% ethanol at a dose of 8 mg/kg under isofluorane anesthesia (2-3 liters/min, 4.0%/vol until anesthetized, then 2.5%/vol throughout the procedure) (Vera-Portocarrero et al., 2006). Control animals were injected with the vehicle solution only (100% ethanol, 0.25 cc).
Referred abdominal hypersensitivity in the pancreatitis model was quantified by measuring the number of withdrawals events evoked by application of a calibrated von Frey filament (determined by either abdominal withdrawal, licking of the abdominal area, or whole body withdrawal). Rats were placed inside Plexiglas boxes on an elevated fine fiberglass screen mesh and acclimated for 30 minutes before testing. A 4 g von Frey filament was applied from underneath through the mesh floor, to the abdominal area at different points on the surface. […] The mean occurrence of withdrawal events in each trial is expressed as the number of responses to 10 applications as previously described (Vera-Portocarrero et al., 2003).
Significant differences between each experimental group for the behavioral test across time were detected by a two-factor ANOVA follow by the Fishers Least Significance Difference post-hoc test. One-factor ANOVA was used to detect significant differences in behavioral outcomes within each experimental group over time. A linear regression analysis was used to detect the dose-dependency of the effects. Significance was established at the p<0.05 level.

[7] = Table 11, bovine 1D receptor binding, read-out: 5HT1D
[8] = Table 15, read-out: IC50 in μM (Human eNOS)

eNOS/nNOS ([1]; Table 15, selectivity ratio): 55.6
Compound: CCNC1CCC(c2c[nH]c3ccc(NC(=N)c4cccs4)cc23)C1 (mixture of isomers) [Compound 26, N-(3-(3-(ethylamino)cyclopentyl)-1H-indol-5-yl)thiophene-2-carboximidamide]

IC50 ([1]; Table 10, human nNOS, read-out: nNOSh): 0.4 µM
e/n ([1]; Table 10, ratio eNOS/nNOS): 97
IC50 ([2]; Table 10, human eNOS, read-out: eNOSh): 38.7 µM
IC50 [3]: 35 µM
IC50 [4, 7]: 0.19 µM
IC50 ([5]; Table 11, rat 1B receptor binding): 0.85 µM
Compound: CN1CCC(c2c[nH]c3ccc(NC(=N)c4cccs4)cc23)C1 (racemic) [Compound 6, N-(3-(1-methylpyrrolidin-3-yl)-1H-indol-5-yl)thiophene-2-carboximidamide]

Compound: CNC1CCCC(c2c[nH]c3ccc(NC(=N)c4cccs4)cc23)C1 (racemic) [Compound (±)-20, N-(3-((1S,3R)-3-(Methylamino)cyclohexyl)-1H-indol-5-yl)thiophene-2-carboximidamide]
IC50 ([4]; read-out: 5HT 1D, Table 14): 2.8 µM
IC50 ([5]; Table 14, read-out: 5HT 1B): 20 µM

Compound: CNC1CCCC(c2c[nH]c3ccc(NC(=N)c4cccs4)cc23)C1 (single isomer, unassigned) [Compound 20a, N-(3-(3-(methylamino)cyclohexyl)-1H-indol-5-yl)thiophene-2-carboximidamide dihydrochloride]
IC50 ([2]; Table 14, read-out: Human eNOS): 49.3 µM
IC50 ([4]; read-out: 5HT 1D, Table 14, listed as 20a (isomer-1), dihydrochloride): 3.2 µM
IC50 ([5]; Table 14, read-out: 5HT 1B): 1.3 µM

Compound: CNC1CCCC(c2c[nH]c3ccc(NC(=N)c4cccs4)cc23)C1 (single isomer, unassigned) [Compound 20b, N-(3-(3-(methylamino)cyclohexyl)-1H-indol-5-yl)thiophene-2-carboximidamide dihydrochloride]
IC50 ([2]; Table 14, read-out: Human eNOS): 75 µM
IC50 ([4]; read-out: 5HT 1D, Table 14, listed as 20b (isomer-2), dihydrochloride): 1.4 µM
IC50 ([5]; Table 14, read-out: 5HT 1B): 12 µM

Compound: CCN1CC=C(c2c[nH]c3ccc(NC(=N)c4cccs4)cc23)CC1 [Compound 19, N-(3-(1-ethyl-1,2,3,6-tetrahydropyridin-4-yl)-1H-indol-5-yl)thiophene-2-carboximidamide]
eNOS/nNOS ([1]; Table 13, selectivity ratio): 92.4
IC50 ([1]; Table 13, read-out: Human nNOS): 0.74 µM
IC50 ([2]; Table 13, read-out: Human eNOS): 68.4 µM

Compound: N=C(Nc1ccc2[nH]cc(C3=CCN(CCO)CC3)c2c1)c1cccs1 [Compound 24, N-(3-(1-(2-hydroxyethyl)-1,2,3,6-tetrahydropyridin-4-yl)-1H-indol-5-yl)thiophene-2-carboximidamide]
eNOS/nNOS ([1]; Table 15, selectivity ratio): 99
IC50 ([1]; Table 15, read-out: IC50 in μM (Human nNOS)): 0.748 µM
IC50 [2, 8]: 74.1 µM

Compound: N=C(Nc1ccc2[nH]cc(CCN3CCCC3)c2c1)c1cccs1 [Compound 25, N-(3-(2-(pyrrolidin-1-yl)ethyl)-1H-indol-5-yl)thiophene-2-carboximidamide]
IC50 ([1]; IC50 in μM (Human nNOS), Table 15): 0.427 µM
eNOS/nNOS ([1]; Table 15, selectivity ratio): 23.2
IC50 [2, 8]: 9.92 µM

Compound: CN1CCC[C@@H]1Cc1c[nH]c2ccc(NC(=N)c3cccs3)cc12 [Compound 27, (R)—N-(3-((1-Methylpyrrolidin-2-yl)methyl)-1H-indol-5-yl)thiophene-2-carboximidamide]
reversal of tactile allodynia in pancreatitis visceral pain model [6]: reverts the tactile allodynia

Compound: CNS(=O)(=O)Cc1ccc2[nH]cc(CCN(C)C)c2c1 [Sumatriptan, reference compound]
IC50 [4, 7]: 0.059 µM
